Laboratory results: US11407741B2, “Compounds and their use as selective inhibitors of caspase-2” (priority 2017, dated 2022)
Blank lines part the entries; values can stand above or below the compound they belong to. Where a SMILES comes first, the peptide text is derived from it.

Legend:
[1] = target: T1, Caspase-2 (Homo sapiens, UniProt P42575); experiment: Caspase-2 inhibition assay for irreversible inhibitors (kinact/KI, continuous method); type: biochemical
T1 construct: the Caspase-2 and Caspase-3 are human recombinant active enzymes; purchased Enzo Life ALX-201-057-U100
T1 sequence (P42575 170-325 limits assumed): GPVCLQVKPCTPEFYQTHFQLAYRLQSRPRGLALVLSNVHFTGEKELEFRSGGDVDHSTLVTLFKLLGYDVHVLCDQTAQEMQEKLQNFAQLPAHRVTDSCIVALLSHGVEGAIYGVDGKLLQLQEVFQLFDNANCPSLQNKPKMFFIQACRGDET
T1 sequence (P42575 348-452 limits assumed): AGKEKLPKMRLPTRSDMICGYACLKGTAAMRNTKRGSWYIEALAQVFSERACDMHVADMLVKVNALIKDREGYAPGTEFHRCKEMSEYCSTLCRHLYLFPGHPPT
Experimental: The efficiency of the comparative compound Δ2Me-TRP601, that is an already known group II Caspase inhibitor (inhibitor of Caspase-2, Caspase-3 and Caspase-7), has been assessed by a similar protocol described in Chauvier et al., 2011 Cell Death Dis 2011, 2:e203.
In this example, the Caspase-2 and Caspase-3 are human recombinant active enzymes that are respectively provided by Enzo Life® (ALX-201-057-U100) and R&D Systems® (707-C3-010/CF).
Caspase-2 is used at a final concentration of 0.1 nM in a “Caspase-2 buffer” containing 20 mM HEPES (pH 7.4), 5 mM DTT, 2 mM EDTA, 0.1% CHAPS and 800 mM succinate. Caspase-3 is used at a final concentration of 0.5 nM in a “Caspase-3 buffer” containing 20 mM HEPES (pH 7.4), 0.1% CHAPS, 5 mM DTT, and 2 mM EDTA.
The peptide substrates used for the enzymatic activity measurements are Ac-DEVD-AMC and Ac-VDVAD-AMC commercialized by EnzoLife® (respectively referenced ALX-260-031-M005 and ALX-260-060-M005). They are fluorogenic due to the presence of their AMC (7-amino-4-methylcoumarin) end group. The releasing of AMC enables to follow the enzymatic activity in fluorescence unit RFU over time in a 96-wells microplate.
The fluorescence values are measured at 37° C. with a spectrofluorometer with a microplate reader BMG FLUOstar OPTIMA. This apparatus is driven by the software Biolise® and is equipped with thermoelectric cooling device by Peltier effect. The mathematical analyses of the experimental data are done with the software Kaleidagraph®.
The inhibitory properties of the tested compounds are evaluated by the determination of the kinact/KI ratio regarding either Caspase-2 or Caspase-3 wherein: • kinact is the maximal inactivation rate constant, and • KI is the dissociation constant according to:
Said ratio is measured according to the continuous method (Allison R D. Curr Protoc Protein Sci. 2001 May; Chapter 3:Unit 3.5.; Chauvier et al., 2011 Cell Death Dis 2:e203; Tan et al., J Med Chem 2015, […]).
Briefly, Caspases activities were determined by monitoring the hydrolysis of fluorogenic substrates (λexc=355 nm, λem=460 nm) as a function of time, in the presence of untreated Caspases (control) or Caspases that had been incubated with a test compound, for 30 min minimum at 37° C. using a BMG Fluostar microplate reader (black 96-well microplates) and the initial velocity (V0) was determined from the linear portion of the progress curve.
Substrates and compounds were previously dissolved in DMSO at 10 mM, with the final solvent concentration kept at lower 4% (v/v). V0, relative velocities, KM and IC50 were determined from experimental data using Mars data Analysis 2.0 and Kaleidagraph softwares.
Inhibitor binding affinity (dissociation constant, KI) and first-order rate constant (k3) parameters were determined for Caspase-2 and Caspase-3 using the progress curve method. The ratio k3/KI was obtained by fitting the experimental data to the equations (F.U., fluorescence unit): […]
A continuous method of determination of the kinact/KI ratio was used for evaluating the inhibitory activity of the tested compounds against Caspase-2 and Caspase-3.
The reaction mixture is prepared by letting the enzyme and the buffer incubate at 37° C.
The tested inhibitory compounds are prepared at different concentrations (¼ IC50; ½ IC50; IC50; 2 IC50; 4 IC50) and put in the microplate.
Then the reaction mixture comprising the enzyme, the buffer and the substrate is rapidly added in the wells.
The activities of the enzyme are measured between 45 and 60 minutes.
The RFU (Relative Fluorescence Units)=f(times) curves are traced for each concentration of tested molecule according to the following equation: ((((−V0)*(exp(−kobs*m0)))+V0)/kobs*)+RFU0
in which: • V0 corresponds to the initial rate (RFU·s^−1) in the concentration of 0 of the tested inhibitory compound; • kobs is the inactivation rate constant; • RFU0 is the fluorescence value at t=0 min; and • m0 is the variable i.e. the inhibitor concentration.

[2] = target: T2, Casp-2 (Homo sapiens, UniProt P42575); experiment: Caspase-2 inhibition assay for reversible inhibitors (IC50, Ki, dilution method); type: biochemical; details: for IC50: 30 minutes at 37° C. preincubation; for Ki: secondary plot of Lineweaver-Burk
T2 construct: the Caspase-2 and Caspase-3 are human recombinant active enzymes; purchased Enzo Life ALX-201-057-U100
T2 sequence (P42575 170-325 limits assumed): T1 sequence (P42575 170-325 limits assumed)
T2 sequence (P42575 348-452 limits assumed): T1 sequence (P42575 348-452 limits assumed)
Experimental: (§1) A preliminary step in the characterization of an inhibitor is the determination of its IC50. The IC50 is the necessary concentration of an inhibitor to decrease the enzyme activity by 50% of its maximum and uninhibited value.
(§2) The compound, at different concentrations, is incubated with the enzyme and buffer for 30 minutes at 37° C. to allow formation of the Enzyme-Inhibitor complex. The reaction is initiated by addition of buffer and substrate, and then activity is measured over 15 minutes for the determination of initial velocities.
(§3) The enzyme and the inhibitor (or DMSO as control) are incubated for 30 minutes at 37° C. The complex thus formed is diluted to 100th in the buffer/substrate mixture and then the activity measurement is started over 20 minutes. The initial rate obtained for the DMSO represents the 100% activity and will serve as a reference for the quantification of the residual activity of the enzyme in the presence of the inhibitor.
(§4) The reaction is started over 20 minutes upon addition of the buffer-substrate mixture.
(§5) Initial velocity values in RFU·min^−1 are reduced to Specific Activity (SA)values (pmol/min/μg enzyme) from an AMC standard range (1 RFU→0.02 pmol).
(§6) The evolution of the ratio 1/SA as a function of 1/[S] makes it possible to obtain the so-called double-inverse graph of Lineweaver-Burk from equation 4 (eq.4) where Vmaxapp and KMapp are the parameters which vary according to the type inhibition and as a function of inhibitor concentration. The intersection of the lines obtained for increasing inhibitor concentrations makes it possible to distinguish different types of inhibitors.
A secondary graph, obtained from the values of the slopes of the Lineweaver-Burk plot as a function of the concentration of inhibitor, makes it possible to obtain the value of the Ki. Its value is given by the abscissa point at the origin.
The initial velocity V0 is expressed from equation 8 (eq.8), where Vmax is the maximum reaction rate (reached when the enzyme is saturated with substrate), [S] the substrate concentration, KM is the Michaelis-Menten constant (substrate concentration corresponding to Vmax/2), Ki is the dissociation constant which accounts for the affinity of the inhibitor for the enzyme.

[3] = target: T3, Caspase-3 (Homo sapiens, UniProt P42574); experiment: Caspase-3 inhibition assay for reversible inhibitors (IC50, Ki); type: biochemical
T3 construct: the Caspase-2 and Caspase-3 are human recombinant active enzymes; purchased R&D Systems 707-C3-010/CF
T3 sequence (P42574 29-175 limits assumed): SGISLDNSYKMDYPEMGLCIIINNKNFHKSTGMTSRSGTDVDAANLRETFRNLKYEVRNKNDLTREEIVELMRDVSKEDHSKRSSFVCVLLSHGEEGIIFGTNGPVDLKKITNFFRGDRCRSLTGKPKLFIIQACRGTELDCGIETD
T3 sequence (P42574 176-277 limits assumed): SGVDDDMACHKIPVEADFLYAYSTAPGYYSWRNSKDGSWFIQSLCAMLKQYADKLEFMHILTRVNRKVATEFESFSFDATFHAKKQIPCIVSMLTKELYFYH
Experimental: as §1, §2, §3, §4, §5, §6
A secondary graph, obtained from the values of the slopes of the Lineweaver-Burk plot as a function of the concentration of inhibitor, makes it possible to obtain the value of the Ki. Its value is given by the abscissa point at the origin. […]

[4] = tested on: hippocampal neurons intoxicated with Aβ1-42 oligomers; experiment: Protection against Abeta neurotoxicity in primary hippocampal neurons in microfluidic chambers; type: cell-based, mice; details: Aβ intoxicated cells not pretreated, 6 h of intoxication, vs non-intoxicated
Description: Hippocampus are micro-dissected from E16 embryos of C57B16/J wt mice (Rene Janvier, France) in cold Gey's Balanced Salt Solution (GBSS, Sigma) supplemented with 0.1% glucose (Life technologies).
Dissected structures are digested with papain (20 U/ML in DMEM, Sigma; St. Louis, Mo., USA) and mechanically dissociated in the presence of DNAse. Hippocampal cells are then rinsed and re-suspended in DMEM (Life Technologies, Inc., Gaithersburg, Md., USA) to a final density of 18 million cells/ml in Neurobasal (Life technologies) and Glutamax (0.1% LifeTechnologies) supplemented with B27 (1/50) and penicilline/sptreptomycine 1% (Gibco).
This cell suspension is then used to fill the reservoirs of microfluidic chambers, as described (Peyrin et al, 2011 Lab Chips 11(21):3663; Deleglise et al, 2014 Acta Neuropathologica Comm. 2: 145). Microfluidic chips are placed in plastic Petri dishes containing H20-EDTA to prevent evaporation and incubated at 37° C. in a humid 5% CO2 atmosphere. The culture medium is renewed every seven days.
Oligomeric form of Aβ1-42 (Tocris Bioscience, MN, USA), is produced according to Stine W B et al (2003) in J Biol Chem 278, pp 11612-11622 and can be controlled by electron microscopy as in Deleglise B et al. in Acta Neuropathol Commun. 2014; 2: 145).
Briefly, Aβ1-42 lyophilized peptides are solubilized at 1 mM in 1, 1, 1, 3, 3, 3,-hexafluoro-2-propanol (HFIP, Sigma Aldrich). After 30 min of incubation at RT, HFIP is evaporated for 12 h under chemical hood and peptides are dried for 1 h (with a Speed Vac at 4° C.). Then, 5 mM Aβ peptide stock solutions are obtained by resolubilization at in dimethylsulfoxide (DMSO, Sigma Aldrich). To obtain oligomers, Aβ peptide stock solution is diluted in cold phenol free DMEM-F12 medium (Life Technologies) to a final concentration of 100 μM. The solution is then incubated 24 h at 4° C. Soluble Aβ oligomer fraction is collected from the supernatant after a centrifugation step at 20 000 g (10 min; 4° C.), and stored at −80° C. until use.
After 18 days of culture in micro fluidic chambers, hippocampal cells are pre-incubated for 1 h with compounds of the invention prior diluted in phenol free DMEM-F12 medium or in phenol free DMEM-F12 medium alone as a control solution. Cells are then intoxicated for 3 h to 6 h or 24 h with 10 or 100 nm of Aβ1-42 oligomers (or with phenol free DMEM-F12 medium alone as a control solution). After the intoxication step, cells are fixed in 4% paraformaldehyde (PFA, Sigma; St. Louis, Mo., USA) for 20 min RT, and labelled as explained below to evaluate synapses status, cell death or axonal degeneration.
Briefly, after the fixation step, cultures cells are washed twice with PBS+Azide 0.1% for 5 min and permeabilized for 10 min with 0.2% Triton X-100 and 0.1% BSA (Bovine Serum Albumin, Sigma) in PBS+Azide 0.1%. Saturation step is then realized by incubating cells during 30 min in PBS+Azide 0.1%+BSA1%. Primary antibodies are then added and the samples incubated at 4° C. overnight in PBS. Afterwards, samples are rinsed twice for 5 min with PBS+Azide 0.1% and further incubated with the corresponding secondary antibody together with phalloidin conjugated to Alexa Fluor 555 for 2 h RT. The chips were then rinsed twice with PBS+Azide 0.1%.
The following antibodies are used: rabbit polyclonal anti-MAP-2 (AB5622; 1/400, MILLIPORE), mouse monoclonal Anti-Bassoon SAP7F407; 1:400, Enzo LifeSciences). Species-specific secondary antibodies coupled to Alexa 350, 488 or 500 are used (1/500, Life Technologies, Inc., Gaithersburg, Md., USA). Phalloidin conjugated to Alexa Fluor 555 (1/500, EnzoLifeTechnologies) is used to stain F-actin.
Images are acquired with an Axio-observer Zl (Zeiss, Germany) fitted with a cooled CCD camera (CoolsnapHQ2, Ropert Scientific). The microscope is controlled with Metamorph and Micro-manager software. Images were analyzed using ImageJ software.

Compound: CC(C)[C@H](NC(=O)c1ccc2ccccc2n1)C(=O)N[C@@H](CC(=O)O)C(=O)N[C@H](C(=O)N1CC[C@H](CC(C)(C)C)[C@H]1C(=O)N[C@@H](CC(=O)O)C(=O)COc1c(F)cccc1F)C(C)C (single isomer, unassigned) [Compound 2 enantiomer b]
k3/KI Casp2 ([1]; human recombinant Caspase-2 0.1 nM, 37° C.): 1 720 M^−1 · s^−1
Selectivity ratio (C2/C3) (symbol) ([1]; ratio of k3/KI Casp2 to Casp3): +++ (+++: as no inhibitory activity is detectable toward casp3, selectivity is very important (>>1000).)

IC50 [2]: 3910 ± 189 nM
Ki [2]: 3220 nM
Compound: CC(=O)N[C@@H](CC(=O)O)C(=O)N[C@@H](CCC(=O)O)C(=O)N[C@H](C(=O)N[C@H](C=O)CC(=O)O)C(C)C [Ac-DEVD-CHO]

Compound: CC(=O)N[C@H](C(=O)N[C@@H](CC(=O)O)C(=O)N[C@H](C(=O)N[C@@H](C)C(=O)N[C@H](C=O)CC(=O)O)C(C)C)C(C)C [Ac-VDVAD-CHO] (Ac-VDVAD-aldehyde)
Selectivity Indexes (KiCasp3/KiCasp2) [2]: 1.3
IC50 [2]: 6.9 nM
Ki [2]: 6.31 nM
IC50 ([3]; 30 minutes at 37° C. preincubation): 7.23 nM
Ki ([3]; secondary plot of Lineweaver-Burk): 7.68 nM

Compound: Aβ alone: Oligomeric form of Aβ1-42 (Tocris Bioscience) used to intoxicate neurons [reference compound]
decrease in synapse number [4]: ~50%
